# Reference: patent US5846742A, “Selecting substances for treating glucocorticoid-mediated inflammation or immune diseases using Tripterygium wilfordii Hook F extracts” (Board of Regents, The University of Texas System, priority 1997, dated 1998)
# What was measured:
# lymph cells = conditions: concanavalin A; cited from earlier work
# [1] = test system: PGE2 production by human monocytes (COX-2); assay: Endotoxin induced PGE2 production by monocytes (COX-2); type: cell-based; conditions: LPS 10 μg/ml, 18 hours, FIG. 29
# Description: After 18 hours of incubation, cell-free supernatants were collected and assayed for PGE2 content with a radioimmunoassay kit (Amersham), as described by the manufacturer. Data represent the mean of two replicate determinations of two separate experiments. […] Human monocytes produce prostaglandinE2 (PGE2) when stimulated with bacterial endotoxin.
# T cells [2] = assay: PHA-induced T cell proliferation, wilforonide (924); type: cell-based, human; conditions: at the level of ngs
# Excerpt: The molecular groups responsible for the immune suppressive function of these compounds are unknown, however, the core structure of diterpenoids which may be related to their activity consists of an α-β-unsaturated 5 element lactone which can be identified by Kedde reagents. HPLC was used to fractionate the ethyl acetate extract of TwHF and the Kedde reagents were employed to trace the fractions. Then, the effect of selected fractions on the in vitro IL-2 production and [^3 H]-thymidine incorporation by PHA-activated T cells was determined. Fractions that inhibit these T cell functions were selected and the chromatographic pattern was identified with HPLC. One fraction was further purified with HPLC and crystallized repeatedly; a pure, crystallized compound was obtained and designated "924".
# [^3 H]-thymidine was added for the last 14 hours of culture. Each concentration was run in quadruplicate (4 times) and the results for each concentration averaged to provide a mean. The mean cpm×10^3 values were combined and expressed as a percent of T cell inhibition.
# or absence of the indicated concentrations of wilforonide for 3 days.
# [^3 H]-Thymidine was added for the last 14 hours. Data are from 4
# independent experiments.
# IDH4 cells = type: cell-based, human; conditions: 72 hours, FIG. 25
# Description: IDH4 cells, that express endogenous glucocorticoid receptors, were produced by transfecting human fibroblasts with a plasmid containing the MMTV-long terminal repeat driving the SV40 large T antigen. Since extended growth of these cells is dependent on expression of the large T antigen, these cells require exogenous glucocorticoid to maintain proliferation.
# [^3 H]-Thymidine was present for the last 16 h. Data represent the mean k inhibition of [^3 H]-thymidine incorporation of three replicate determinations of three separate experiments.
# [3] = test system: human GR (COS-7 cells, MMTV-luciferase); assay: GR mediated MMTV-luciferase gene activation; type: cell-based; conditions: for GR-mediated target gene activation: purified TwHF compounds
# Description: Cell transfections and assays of GR mediated gene activation. COS-7 cells were maintained in culture in DMEM-10% bovine calf serum. […] Cells were plated at 10^6 cells per 10 cm plate. Twenty-four hours later, the cells were transfected with 500 ng pRShGrα, a GR expression vector (obtained from the Salk Institute, La Jolla, Calif.) and 10 μg of pMMTV-luciferase, a synthetic reporter gene. However, other expression vectors and synthetic reporter genes available to those of skill in the art may be used for transfection. The vector pMMTV-luciferase contains the luciferase gene under regulatory control of glucocorticoid-inducible elements in the MMTV-long terminal repeat. Cells were transfected using the calcium-phosphate precipitation technique (mammalian transfection kit, Stratagene, La Jolla, Calif.). […] Twenty-four hours later, the cells were washed, harvested, and lysates prepared by three cycles of freeze/thawing. The lysates were cleared by centrifugation at 12,000×g for 5 minutes; aliquots were assayed for protein content and equal amounts of proteins were used for luciferase assays.
# COS-7 cells were transfected with a human GR expression vector and the MMTV-luciferase reporter gene construct. A parallel set of plates was transfected with the constitutively active RSV-luciferase construct. […] Cells were lysed after 24 hours and assayed for luciferase activity.
# B cells = assay: SA-induced B cell DNA synthesis / Ig production, triptolide; type: cell-based, human; conditions: for SA-induced B cell DNA synthesis (3H-thymidine incorporation): control 7,900
# Excerpt: Other components of Tripterygium wilfordii Hook F include: […]
# T cells [4] = assay: PHA-induced T cell DNA synthesis, triptolide; type: cell-based, human; conditions: for PHA-induced T cell DNA synthesis (3H-thymidine incorporation): control 93,400
# mouse spleen cells = conditions: high concentrations; cited from earlier work
# Fibroblasts = type: cell-based, human; conditions: triptolide 10 ng/ml
# Description: The cells were assayed for cell viability by using a cytoflowmeter (FACSCAN) after the cells were stained with propidium iodine.
Compound,Lymph cell proliferation (lymph cells),Endotoxin induced PGE2 production / COX-2 induction [1],Immunosuppressive action (T cells [2]),Dexamethasone dependent growth of IDH4 cells (IDH4 cells),GR-mediated target gene activation [3],also measured
"CC(C)[C@]12O[C@H]1[C@@H]1O[C@@]13[C@@]1(C)CCC4=C(COC4=O)[C@@H]1C[C@@H]1O[C@@]13C2=O [Triptonide, triptonide, reference compound]",inhibit the proliferation of lymph cells induced by concanavalin A,,,,,
"CC(C)[C@]12O[C@H]1[C@@H]1O[C@]13[C@]1(O[C@H]1C[C@H]1C4=C(C(=O)OC4)[C@@H](O)C[C@@]13C)[C@@H]2O [Tripdiolide, tripdiolide]",,"inhibited by the extract of TwHF and its purified immunosuppressive component, tripdiolide",potent immunosuppressive action,inhibited dexamethasone dependent growth of IDH4 cells in a concentration dependent manner,inhibited target gene activation by GR,
"CC(C)c1ccc2c(c1O)CC[C@H]1C3=C(CC[C@]21C)C(=O)OC3 [Triptophenolide, triptophenolide]",,,,less active and its activity was not generally correlated with dosage,far less potent,Immunosuppressive activity relative to triptolide or tripdiolide [3]: much less immunosuppressive than triptolide or tripdiolide
"CC(C)[C@]12O[C@H]1[C@@H]1O[C@]13[C@]1(O[C@H]1C[C@H]1C4=C(CC[C@@]13C)C(=O)OC4)[C@@H]2O [Triptolide, triptolide]",inhibit the proliferation of lymph cells induced by concanavalin A,,potent immunosuppressive action,,inhibited target gene activation by GR,"SA-induced B cell DNA synthesis (3H-thymidine incorporation) (B cells; 0.1 ng/ml): 2,000 CPM; SA-induced B cell DNA synthesis (3H-thymidine incorporation) (B cells; 1.0 ng/ml): 100 CPM; B lymphocyte proliferation (B cells; 0.1-1.0 ng/ml): inhibited proliferation of both T and B lymphocytes profoundly; Immunoglobulin production, mitogen stimulated B lymphocytes (B cells; in vitro): inhibited the in vitro production of immunoglobulin from mitogen stimulated human B lymphocytes at comparably small concentrations; PHA-induced T cell DNA synthesis (3H-thymidine incorporation) (T cells [4]; 0.1 ng/ml): 24,200 CPM; PHA-induced T cell DNA synthesis (3H-thymidine incorporation) (T cells [4]; 1.0 ng/ml): 100 CPM; T lymphocyte proliferation (T cells [4]; 0.1-1.0 ng/ml): inhibited proliferation of both T and B lymphocytes profoundly; Lymphocyte proliferation and IL-2 production (mouse spleen cells): suppress B and T lymphocyte proliferation and interleukin-2 production by mouse spleen cells; Toxicity to fibroblasts (Fibroblasts): toxic to fibroblasts"
"CC#C[C@]1(O)CC[C@H]2[C@@H]3CCC4=CC(=O)CCC4=C3[C@@H](c3ccc(N(C)C)cc3)C[C@@]21C [RU486, reference compound]",,"inhibits endotoxin-induced PGE2 production by human peripheral blood monocytes, however, it is not as effective as the TwHF extract at lower concentrations",,,,
